Tested on: 8226-2A1 cells
Assay: MTT in vitro cytotoxicity assay of BCMA antibody conjugates, 8226-2A1
Type: cell-based
Details: 15000 cells, 96 h incubation
Procedure: The cell lines used in the cytotoxicity assays were (1). […] To run the assay, the cells (180 μl, 6000 cells) were added to each well in a 96-well plate and incubated for 24 hours at 37° C. with 5% CO2. Next, the cells were treated with test compounds (20 μl) at various concentrations in appropriate cell culture medium (total volume, 0.2 mL). The control wells contain cells and the medium but lack the test compounds. […] MTT (5 mg/mL) was then added to the wells (20 μl) and the plates were incubated for 1.5 hr at 37° C. The medium was carefully removed and DMSO (180 μl) was added afterward. After it was shaken for 15 min, the absorbance was measured at 490 nm and 570 nm with a reference filter of 620 nm. The inhibition % was calculated according to the following equation: inhibition %=[1−(assay-blank)/(control-blank)]×100.

CC(=O)O[C@H]1C(=O)[C@@]2(C)[C@H]([C@H](OC(=O)c3ccccc3)[C@]3(O)C[C@H](OC(=O)[C@H](O)[C@@H](NC(=O)c4ccccc4)c4ccccc4)C(C)=C1C3(C)C)[C@]1(OC(C)=O)CO[C@@H]1C[C@@H]2O [Paclitaxel]
IC50: 3.71 nM
